In paper PMC6110851, “An Optimized MicroPET Imaging Method for the Distribution and Synergies of Natural Products” (Frontiers in Pharmacology, 2018):

Experiments:
NF-κB = NF-κB dual luciferase reporter assay in TNF-stimulated HEK 293 T cells; type: cell-based; conditions: 10 μmol/L, HEK 293T stimulated by TNF-α, P < 0.05
Description: The separation process was repeated five times for use in the activity tests. […] After 48 h, radioactive elements had decayed, the residues were stored at 4°C for anti-inflammatory activity tests ([Dong et al., 2013]; [Qingxin et al., 2016]).
HEK 293 T cells were cultured in standard Dulbecco’s modified Eagle’s medium (DMEM; Hyclone) supplemented with 10% fetal bovine serum (FBS; Biological Industries). The cells were placed in 96-well plates at 37°C in an air-CO2 environment (95/5% v/v). Cells were grown to 80–90% confluence and incubated for 12 h in DMEM without FBS. Transfection (20 h) was performed according to the manufacturer’s instructions. HEK 293 T cells were pretreated with drugs 1 h prior to TNF-stimulation (5 ng/mL) for 6 h. Dex (10^-5mol/L) was used as a positive control for NF-κB inhibition. The NF-κB activity was assayed using dual luciferase reporter assay system (Promega) according to the manufacturer’s instructions ([Qingxin et al., 2016]). Antiinflammatory activity was calculated as the ratio of firefly luciferase activity to Renilla luciferase activity (internal control).

[1] = MicroPET biodistribution of [^18F]-GA in mice; type: in vivo
Description: The mice were grouped by weight and housed in cages of the climate control room (25°C), with a photoperiod 12:12-h. During feeding, mice were free to access food and water. Mice were fasted for 24 h before the experiment. The mice were anesthetized with 4% isoflurane while preparing for scanning ([Constantinescu et al., 2013b]; [Cui et al., 2017]). Eighteen healthy male Kunming mice, weighing 20 ± 2 g, were divided into three groups, which were control group, once-administered (OA) group and long-term administration (LA) group. In the OA group, 1 h before the administration of [^18F]-GA, the mice were orally treated with PG polysaccharides. In the LA group, the mice were orally given the PG polysaccharides for 7 days, but not before the administration of [^18F]-GA.
Rice received a tail vein injection (8.67 ± 2.14 MBq/μg) of [^18F]-GA and placed in the scanner bed and mouse-imaging room immediately ([Constantinescu et al., 2013b]; [O’Doherty et al., 2017]). Firstly, 2 h PET scanning was performed using an Inveon-dedicated PET scanner. The average delay between injection and starting of PET scanning was 3.5 min. Rice were maintained stable under 4% isoflurane anesthesia throughout scanning. The PET list-mode data were dynamically classified into 23 3D sinograms of span and three ring difference. After Fourier recombination, the data were reconstructed using a 2D ordered-subset expectation maximization algorithm. Random events were excluded before reconstruction. The response of detector is normalized using a component-based approach. All dynamic images were corrected for radioactive decay automatically. The PET images were reconstructed by a cone beam algorithm into 480 × 480 × 632 image arrays. After the reconstruction, images were spatially transformed to match the PET images ([Constantinescu et al., 2013a],[b]).
The reconstruction of the image was performed using the PMOD software (PMOD Technologies). The 3D volumes of interest (VOIs) were drawn manually of the following organs: brain, heart, liver, lungs, kidneys, cortical bone, and gallbladder. The organs were carefully identified and VOIs were drawn as irregular contours on high-resolution PET images obtained from each mouse ([Constantinescu et al., 2013b]; [Garg et al., 2017]). The size of each VOI was less than the actual size of each organ to minimize the effects of PET on adjacent organ spills. The VOIs drawing was verified by a second operator. The VOIs of cortical bone were generated by first using PET image to depict the entire femur bone ([Constantinescu et al., 2013b]). The VOI was transferred to a dynamic PET image and the mean time-activity curve (TAC) of the decay correction was extracted for each target organ ([Constantinescu et al., 2013b]).

| passage of the blood brain barrier ([1]; mice, concluded from brain concentrations) | concentration in the brain of the mouse ([1]; results obtained from PET) | Structure (SMILES) | NF-κB inhibitory effect (NF-κB) |
| --- | --- | --- | --- |
|  |  | C[C@@H]1C[C@H]2[C@@H]3CCC4=CC(=O)C=C[C@]4(C)[C@@]3(F)[C@@H](O)C[C@]2(C)[C@@]1(O)C(=O)CO [Dex, reference compound] | significant NF-κB inhibitory effects |
| could not pass the blood brain barrier | very low, almost undetectable | CC1(C)[C@@H](O)CC[C@]2(C)[C@H]3C(=O)C=C4[C@@H]5C[C@@](C)(C(=O)O)CC[C@]5(C)CC[C@@]4(C)[C@]3(C)CC[C@@H]12 [GA, Glycyrrhetic acid, reference compound] |  |
